Measured values from patent publication US9512111B2, “N-sulfonylated tetrahydroquinolines and related bicyclic compounds for inhibition of RORγ activity and the treatment of disease” (Lycera Corporation, priority 2010, dated 2016).

biological target: T1, RORγ-LBD (Homo sapiens, UniProt P51449); experiment: RORγ-Ligand Binding Domain TR-FRET Assay; type: biochemical; conditions: Table 8, indazoles
T1 construct: HIS-tagged RORγ-LBD was recombinantly expressed in SF9 cells; made in house; host or cells: SF9 cells (baculovirus); unpurified lysate
T1 sequence (P51449 269-508 limits assumed): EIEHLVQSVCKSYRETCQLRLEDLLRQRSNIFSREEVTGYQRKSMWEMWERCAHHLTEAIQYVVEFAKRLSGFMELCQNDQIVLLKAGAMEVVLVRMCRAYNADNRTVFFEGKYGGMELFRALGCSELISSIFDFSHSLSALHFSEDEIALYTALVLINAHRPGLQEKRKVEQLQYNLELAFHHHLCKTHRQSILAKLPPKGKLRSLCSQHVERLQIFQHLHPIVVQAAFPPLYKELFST
Description: HIS-tagged RORγ-LBD was recombinantly expressed in SF9 cells using a baculovirus expression system. The protein was not purified. Cells were lysed and the lysate was used as a source for RORγ-LBD for the assay. A 1:80 dilution of RORγ-LBD lysate in assay buffer (25 mM HEPES pH 7.0, 100 mM NaCl, 0.01% Tween, 0.1% BSA) was prepared and 5 μL was added to each well (RORγ-LBD final concentration ˜10 nM). Control wells received lysate from SF9 cells not expressing RORγ-LBD.
Compounds to be tested were diluted to 100× final test concentration in DMSO and further diluted to 4× final test concentration using assay buffer to provide the test compound mixture. An aliquot (5 μL) of the test compound mixture was added to each well.
A 4× stock of biotinylated-LXXLL peptide from SRC1-2 (Biotin-[…]) was prepared in assay buffer and a 5 μL aliquot added to each well (450 nM final concentration). A 4× solution of europium tagged anti-HIS antibody (2 nM final concentration) and APC conjugated streptavidin (60 nM final concentration) were prepared and a 5 μL aliquot added to each well.
The final assay mixture was incubated for 4 hours to overnight, and the fluorescence signal was measured on an Envision plate reader: (Excitation filter=340 nm; APC emission=665 nm; Europium emission=615 nm; dichroic mirror=D400/D630; delay time=100 μs, integration time=200 μs).
IC50 values for test compounds were calculated from the quotient of the fluorescence signal at 665 nm divided by the fluorescence signal at 615 nm using GraphPad Prism software.

IC50, < 15 µM:
Cc1nn(C(F)F)cc1S(=O)(=O)n1ncc2ccc(NC(=O)Cc3cc(F)cc(F)c3)cc21 [Compound V-14], O=C(Nc1ccc2cnn(S(=O)(=O)c3cc(Cl)ccc3F)c2c1)c1c(F)cccc1Cl [Compound V-169], O=C(Nc1ccc2cnn(S(=O)(=O)c3cccc(OC(F)(F)F)c3)c2c1)c1c(F)cccc1C(F)(F)F [Compound V-50], Cc1cccc(S(=O)(=O)n2ncc3ccc(NC(=O)Cc4cnc(C)s4)cc32)c1 [Compound V-5], O=C(Nc1ccc2cnn(S(=O)(=O)c3cccc(C(F)(F)F)c3)c2c1)c1c(Cl)cccc1C(F)(F)F [Compound V-42], CC(=O)c1ccc(S(=O)(=O)n2ncc3ccc(NC(=O)c4c(F)cccc4Cl)cc32)cc1 [Compound V-141], O=C(Nc1ccc2cnn(S(=O)(=O)c3cccc(Cl)c3)c2c1)c1c(F)cccc1C(F)(F)F [Compound V-48], O=C(Nc1ccc2cnn(S(=O)(=O)Cc3ccc(Cl)cc3)c2c1)c1c(F)cccc1Cl [Compound V-92], O=C(Nc1ccc2cnn(S(=O)(=O)c3cccc(C(F)(F)F)c3)c2c1)c1c(F)cccc1Cl [Compound V-55], Cc1cccc(Cl)c1C(=O)Nc1ccc2cnn(S(=O)(=O)c3cccc(C(F)(F)F)c3)c2c1 [Compound V-8], COc1cccc(S(=O)(=O)n2ncc3ccc(NC(=O)Cc4ccc(Cl)cc4)cc32)c1 [Compound V-32], Cc1c(Cl)cccc1S(=O)(=O)n1ncc2ccc(NC(=O)c3c(F)cccc3Cl)cc21 [Compound V-145], CNC(=O)Nc1ccc(S(=O)(=O)n2ncc3ccc(NC(=O)c4c(F)cccc4Cl)cc32)cc1Cl [Compound V-133], O=C(Nc1ccc2cnn(S(=O)(=O)c3ccsc3)c2c1)c1c(F)cccc1Cl [Compound V-99], O=C(Cc1ccc(F)c(F)c1)Nc1ccc2cnn(S(=O)(=O)c3cccc(OC(F)F)c3)c2c1 [Compound V-18], O=C(Nc1ccc2cnn(S(=O)(=O)c3cc(F)cc(C(F)(F)F)c3)c2c1)c1c(F)cccc1Cl [Compound V-161], COc1cccc(S(=O)(=O)n2ncc3ccc(NC(=O)c4c(F)cccc4C(F)(F)F)cc32)c1 [Compound V-49], O=C(Nc1ccc2cnn(S(=O)(=O)c3ccc(F)cc3)c2c1)c1c(F)cccc1Cl [Compound V-171], COc1ccc(S(=O)(=O)n2ncc3ccc(NC(=O)c4c(F)cccc4Cl)cc32)cc1 [Compound V-157], O=C(Nc1ccc2cnn(S(=O)(=O)C3CCOCC3)c2c1)c1c(F)cccc1Cl [Compound V-79], O=C(Nc1ccc2cnn(S(=O)(=O)c3ccc(F)c(Cl)c3)c2c1)c1c(F)cccc1Cl [Compound V-76]

same assay, conditions: benzoxazines, Table 9

IC50, < 15 µM:
C[C@H]1CN(S(=O)(=O)c2ccc(F)cc2)c2cc(NC(=O)Cc3ccncc3)ccc2O1 [VI-130], O=C(Cc1ccc(F)cc1)Nc1ccc2c(c1)N(S(=O)(=O)c1ccc(F)c(F)c1)C[C@@H](CO)O2 [VI-74], C[C@H](O)[C@H]1CN(S(=O)(=O)c2ccc(F)cc2)c2cc(NC(=O)c3c(Cl)cccc3C(F)(F)F)ccc2O1 [VI-16], N#Cc1cccc(S(=O)(=O)N2C[C@H](CO)Oc3ccc(NC(=O)Cc4ccc(F)cc4)cc32)c1 [VI-64], C[C@H]1CN(S(=O)(=O)c2ccc(F)cc2)c2cc(NC(=O)C3(c4ccc(Cl)cc4)CC3)ccc2O1 [VI-131], O=C(Cc1ccc(Cl)cc1)Nc1ccc2c(c1)N(S(=O)(=O)c1ccc(F)c(F)c1)C[C@@H](CO)O2 [VI-71], C[C@H](C(=O)Nc1ccc2c(c1)N(S(=O)(=O)c1ccc(F)cc1)C[C@H](C)O2)c1ccccc1 [VI-133], O=C(Cc1ccc(F)cc1)Nc1ccc2c(c1)N(S(=O)(=O)c1ccc(Cl)cc1)C[C@H](CO)O2 [VI-68], O=C(Nc1ccc2c(c1)N(S(=O)(=O)c1ccc(F)cc1)CC(CC(F)(F)F)O2)c1c(F)cccc1Cl (stereo not drawn) [VI-7]
